e = 2'-O-(2-methoxyethyl) (MOE); d = 2'-deoxy (DNA)
Tests used:
mice [1] = assay: Vascular leakage, Evans Blue in plasma, captopril-induced (Example 4); assay type: in vivo, mouse; conditions: HOE-140 30 μg ip, percentage increase or decrease vs Group 1 PBS
Description: Groups 4, 5, 6, 7, 8, and 9 consisted of 8 mice each and were treated with 2.5 mg/kg, 5 mg/kg, 10 mg/kg, 20 mg/kg, 40 mg/kg, or 80 mg/kg (corresponding to 5 mg/kg, 10 mg/kg, 20 mg/kg, 40 mg/kg, 80 mg/kg, or 160 mg/kg per week), respectively, of ISIS 410944 administered subcutaneously twice a week for 3 weeks. At the end of the treatment period, the mice of all the groups were intraperitoneally administered 20 μg of captopril. Groups 4-9 served as the experimental treatment groups for examining the effect of varying doses of ISIS 410944 on captopril-induced vascular permeability.
All the groups were then injected with 30 mg/kg of Evans Blue solution in the tail vein. The mice were sacrificed 30 min after the Evans Blue solution administration and colons, feet, ears, and intestines were harvested. Blood samples were taken through cardiac puncture.
The blood drawn through cardiac puncture was immediately mixed with 3 times the volume of ice-cold ethanol. The solution was centrifuged at 15,000 g for 20 minutes at 4° C. to remove cell debris and precipitated plasma proteins. The ethanol extracts were further purified by ultra-filtration through a 10 kDa MWCO filter. The color intensity of the ethanol extracted plasma solution was then measured at OD620nm. The results are presented in Table 7 as percentage increase or decrease of the OD values of the Group 1 PBS control.

Factor 12 mRNA = assay: Liver RT-PCR of Factor 12 mRNA, C1-INH ASO-induced angioedema model (Example 9); assay type: in vivo, mouse; conditions: all groups given ISIS 461756 12.5 mg/kg sc twice a week, test ASO 40 mg/kg sc twice a week 3 weeks, vs PBS control not treated with ISIS 461756
Description: (§1) Vascular permeability induced by ISIS 461756, an antisense oligonucleotide which targets murine C1 inhibitor mRNA, increases vascular permeability in mice and replicates the pathology of hereditary angioedema. The effect of ISIS 410944 on this model was evaluated.
(§2) One group of 8 mice was treated with 40 mg/kg ISIS 410944 administered subcutaneously twice a week for 3 weeks (weekly dose of 80 mg/kg). A second group of 8 mice was treated with 40 mg/kg of the control oligonucleotide, ISIS 141923, administered subcutaneously twice a week for 3 weeks (weekly dose of 80 mg/kg). A third group of 8 mice was treated with PBS administered subcutaneously twice a week for 3 weeks. On day 14, all the groups were treated with 12.5 mg/kg ISIS 461756 administered subcutaneously twice a week for 3 weeks (weekly dose of 25 mg/kg). A control group of mice was treated with PBS administered subcutaneously twice a week for 3 weeks but was not administered ISIS 461756.
(§3) At the end of the treatment period, all the groups were injected with 30 mg/kg of Evans Blue solution into the tail vein. The mice were sacrificed 30 min after the Evans Blue solution administration and colons, feet, ears, and intestines were harvested. The liver was also harvested for RNA analysis.
(§4) RNA was isolated from the liver for RT-PCR analysis of C1-INH and Factor 12 mRNAs. […]

mice [2] = assay: Evans Blue vascular permeability, ISIS 461756-induced model (Example 9); assay type: in vivo, mouse; conditions: all groups given ISIS 461756 12.5 mg/kg sc twice a week; test ASO 40 mg/kg sc twice a week 3 weeks; vs untreated PBS control
Description: as §1, §2, §3
The harvested tissues from the feet, colon, and intestine were placed in formamide solution overnight to leach out the Evans Blue dye. The formamide solution containing feet tissue was heated to 55° C. and left overnight. The color intensity of the dye-infused formamide solution was then measured at OD600nm. The data is presented in Table 20 as percent increase or reduction compared to the PBS control not treated with ISIS 461756.

C1-INH mRNA = assay: Liver RT-PCR of C1-INH mRNA, C1-INH ASO-induced angioedema model (Example 9); assay type: in vivo, mouse; conditions: all groups given ISIS 461756 12.5 mg/kg sc twice a week, test ASO 40 mg/kg sc twice a week 3 weeks, vs PBS control not treated with ISIS 461756
Description: as §1, §2, §3, §4

Factor 12 = assay: Spectrozyme Factor 12a based amidolytic assay for Factor 12 activation in plasma (Example 8); assay type: in vivo; conditions: mouse plasma; for % F12 activation compared to the PBS control: dextran sulfate
Description: The effect of antisense inhibition of kallikrein (KLKB1) mRNA on Factor 12 protein activation was evaluated.
Group 1 consisted of 8 mice and was treated with PBS administered subcutaneously twice a week for 3 weeks. No other treatment was administered to Group 1 which served as a control group to measure Factor 12 activation.
Groups 2, 3, 4, 5, and 6 consisted of 8 mice each and were treated with 2.5 mg/kg, 5 mg/kg, 10 mg/kg, 20 mg/kg, or 40 mg/kg (corresponding to 5 mg/kg, 10 mg/kg, 20 mg/kg, 40 mg/kg, or 80 mg/kg per week), respectively of ISIS 482584 administered subcutaneously twice a week for 3 weeks. Groups 2-6 served as the treatment groups for measuring the effect of ISIS 482584 on Factor 12 activation.
At the end of the treatment period, plasma was harvested from the mice for the Spectrozyme® Factor 12a based amidolytic assay for Factor 12 in plasma.
Plasma (5 μL) was added to 85 μL of PBS with 1 ug/ml dextran sulfate (500 kDa) in a 96 well polypropelene microplate and the solution was incubated for 5 minutes at room temperature. Spectrozyme® FXIIa (10 μL of a 2 mM solution) and 0.2 mM KALLISTOP™ solution was added and the absorbance kinetic was measured at 405 nm. Factor 12 activation was measured in the linear phase of absorbance accumulation. The results are presented in Table 18 as a percentage of Factor 12 activation measured in the PBS control sample.

Row | Substance | Percent inhibition of mRNA expression, Factor 12 mRNA (Factor 12 mRNA) | Percent change in vascular permeability, Colon (mice [2]) | Percent change in vascular permeability, Feet (mice [2]) | Percent change in vascular permeability, Intestines (mice [2]) | other results
1 | HOE-140 | – | – | – | – | Percentage of OD620 nm of Evans Blue dye compared to the PBS basal control to measure vascular leakage, Plasma (mice [1]): 70%
2 | ISIS 141923: control oligonucleotide, a 5-10-5 MOE gapmer with no known murine target, CCTTCCCTGAAGGTTCCTCC; SEQ ID NO: 38 (sugars from the 5' end e5 d10 e5, backbone and methylation of C not given here) | 0% | 2% | 80% | 14% | Percent inhibition of mRNA expression, C1-INH mRNA (C1-INH mRNA): 79%
3 | ISIS 461756: 5-10-5 MOE gapmer AAAGTGGTTGATACCCTGGG (SEQ ID NO: 37) which targets murine C1 inhibitor mRNA; induces vascular permeability (sugars from the 5' end e5 d10 e5, backbone and methylation of C not given here) | 0% | 13% | 70% | 27% | –
4 | ISIS 482584: 5-10-5 MOE gapmer targeting kallikrein (KLKB1), GGCATATTGGTTTTTGGAAT; SEQ ID NO: 39 (sugars from the 5' end e5 d10 e5, backbone and methylation of C not given here) | – | – | – | – | % F12 activation compared to the PBS control (Factor 12; 5 mg/kg/wk sc 3 weeks): 82%; % F12 activation compared to the PBS control (Factor 12; 10 mg/kg/wk sc 3 weeks): 63%; % F12 activation compared to the PBS control (Factor 12; 20 mg/kg/wk sc 3 weeks): 47%; % F12 activation compared to the PBS control (Factor 12; 40 mg/kg/wk sc 3 weeks): 24%; % F12 activation compared to the PBS control (Factor 12; 80 mg/kg/wk sc 3 weeks): 14%; activation of Factor 12 (Factor 12; 5-80 mg/kg/wk sc 3 weeks): decreased activation of Factor 12

Source: patent publication US9187749B2, “Methods for modulating factor 12 expression” (Isis Pharmaceuticals, Inc., priority 2011, dated 2015)
